Measured values taken from patent US5328823A, “Enzyme-based biosensors for detecting noble gases” (American Air Liquide, priority 1992, dated 1994).

Key:
[1] = system: Tyrosinase; experiment: Gas biosensor diffusion cell, Tyrosinase/L-Tyrosine reaction monitored at 305 nm, Curlon Grade 861 film; format: biochemical, Mushroom; conditions: gas in upper chamber of diffusion cell, 25° C.; for maximum change in enzymatic activity, Reference Air: compared to air diffusion through the film; for maximum change in enzymatic activity, Reference Nitrogen: compared to nitrogen
Source text: Construction consists of coupling two 1-cm lightpath UV grade methacrylate covets with a ring of 100% silicone rubber (General Purpose Sealant, Dow Corning) applied on their outside rim. Before sealing with silicone, a 1-cm^2 square of a polymeric film of known permeabilities to the different gases is placed between the two cuvettes. Holes have been previously drilled in each covet (drill bit 7/64") to receive a septum (d=3 mm; h=8 mm; Supelco No. 3-3301M). 100% silicone rubber was applied around the septa to avoid possible leaks.
Tyrosinase/L-Tyrosine monitored at 305 nm
Enzyme: Tyrosinase (SIGMA No. T-7755) (Monophenol monooxygenase; Polyphenol oxidase; Catechol oxidase; Monophenol, dihydroxyphenylalanine: oxygen oxidoreductase; From Mushroom
Chamber 1 (upper) is flushed for 2 […] with 100% nitrogen (very low flow to prevent tearing of the polymeric film: line delivery pressure <5 psi) at ambient temperature (25° C.), using 22G11/2 needles (small gauge to reduce risks of leakage through holes in septa).
Chamber 2 (lower) is flushed in the same way as chamber 1.
Chamber 2 is then filled with 2.0 ml of N2 -saturated solution C, by means of a 3 cc syringe (previously purged with N2).
Before the spectrophotometric run, 20 cc of the appropriate gas (Air, N2, Ar, Kr, Xe) is passed through chamber 1 of each of the 3 diffusion cells simultaneously, by means of a 30 cc syringe.
Following immediately, the run starting time t0 is given by the simultaneous injections of 0.5 ml of N2 -saturated-solution B in chamber 2 of each diffusion cell. The 1 cc syringes used for sampling the 0.5 ml are previously purged with N2.
A selected example is given below for one of the enzymatic system/polymeric film tandems assayed. Given as well is the maximum change in enzymatic activity noted compared to the reaction resulting from air diffusion through the film, or compared to nitrogen. A sample graphic data output file is appended.
Polymeric film insert in diffusion cells: Curlon Grade 861 (CURWOOD).
Biochemical reaction (monitored at 305 nm): Tyrosinase/L-Tyrosine at 25° C. and optimal reaction conditions, gas in upper chamber of the diffusion cell being: […]

[2] = system: Tyrosinase; experiment: Tyrosinase/L-tyrosine biosensing bag (Curlon Grade 861) placed in gas-packaged food packages, rate of colour change; format: biochemical, Mushroom
Source text: The above mentioned oxido-reductase system (tyrosinase/L-tyrosine) is placed inside a 3 cc bag by heat-sealing of the polymeric film used in protocol described above (Curlon Grade 861, Curwood).
The 3 cc bag is placed into a series of packages containing food products under different gas mixtures, which include neon, argon, krypton, xenon, oxygen, nitrogen and carbon dioxide. The relative rate of changing color of the device, that is the development of a pink-brown color, is monitored over time.
A similar series is run, but after holes have been punctured in the packages to simulate leaks. The rate of changing color is then monitored. Thus we have made a leak detection system.
In the same manner, the exchange of gases through the film of the packages and the change in respiration of fresh horticultural commodities can also be monitored. […] Preparation of a standard curve permits detection of each type of gas mix relative to the other, and also permits detection of a change in oxygen level caused by vegetable respiration.

[3] = system: β-D-Glucosidase; experiment: β-D-Glucosidase/p-Nitrophenyl-β-D-Glucopyranoside biosensing bag (PE 2 mil) in gas-packaged produce, rate of yellow colour change; format: biochemical, Almonds; conditions: packaged vegetables, compared with nitrogen packaged produce; acceleration rather than inhibition
Source text: The above mentioned hydrolase system (β-D-Glucosidase/p-Nitrophenyl-β-D-Glucopyranoside) is placed inside a 3 cc bag by heat-sealing of the polymeric film used in protocol described above (PE 2 mil).
The protocol followed is the same as described in the third detailed example of the invention, except for the fact that the colorigenic reaction observed is yellow, and is an acceleration rather than an inhibition. Thus, Kr packaged vegetables will produce a yellow color change in the device faster than will nitrogen packaged produce.

[4] = system: particulate sialidase; conditions: highly impure enzymes; the patent calls these results questionable; cited from earlier work
[5] = per atmosphere of added nitrous oxide; independent of oxygen partial pressure; cited from earlier work

rate of changing color of the biosensing device (pink-brown) ([2]; packaged vegetables, compared with the package under 100% N2)	rate of yellow color change in the device [3]	rate of changing color of the biosensing device, case of a leak ([2]; package under 100% gas, compared with 100% N2)	SMILES	maximum change in enzymatic activity, Reference Air [1] [%]	maximum change in enzymatic activity, Reference Nitrogen [1] [%]	effect on activity of particulate sialidase [4]	inhibition per atmosphere of added gas [5] [%]
turns color more slowly			[Ar] [Ar, argon]	-25	-21		
	faster	turns color more slowly	[Kr] [Kr, krypton]	-35	-32		
			[Xe] [Xe, xenon]	-30	-26	enhance the activity	
			FC(F)(F)C(Cl)Br (stereo not shown) [halothane]			enhance the activity	
			[N-]=[N+]=O [nitrous oxide]			enhance the activity	1.9
